The values below come from PMC7445162, “De novo design of an intercellular signaling toolbox for multi-channel cell–cell communication and biological computation” (Nature Communications, 2020).

Read-outs that look alike come from different tables or passages of the source.

In assay [1] the target is T1, LuxR (Aliivibrio fischeri, UniProt P12746).
T1 construct: expressed in E. coli DH5alpha receiver cells; GFP reporter under the Plux* promoter
T1 sequence (P12746 1-250): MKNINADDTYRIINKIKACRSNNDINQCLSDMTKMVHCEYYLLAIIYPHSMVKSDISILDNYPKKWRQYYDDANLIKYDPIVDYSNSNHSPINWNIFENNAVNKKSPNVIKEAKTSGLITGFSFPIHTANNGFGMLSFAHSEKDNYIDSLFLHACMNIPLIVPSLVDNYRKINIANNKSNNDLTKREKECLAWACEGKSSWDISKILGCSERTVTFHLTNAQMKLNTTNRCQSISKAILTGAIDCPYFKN
In words: GFP reporter dose-response in E. coli, flow cytometry. The format is cell-based, Escherichia coli. The following applies: chemically pure signal molecule; M9 medium, 37 °C, 12 h; transcriptional reporter. Background: Flow cytometry measures light scatter and fluorescence of single cells or particles in a stream.

Assay [2] concerns the target T1, LuxR. In words: cell-based. Set-up: species or system Escherichia coli DH5alpha; E. coli receiver cells, GFP reporter under aTF-responsive promoter, flow cytometry, dose-response with pure synthetic signal molecules. The conditions noted are these: synthetic pure signal, replicate. From the text:
(§1) IV-HSL was chemically synthesized (Supplementary Fig. 21).

In the next assay the target is T2, PhlF (Pseudomonas protegens, UniProt Q4K422).
T2 construct: expressed in E. coli DH5alpha receiver cells; PphlF-sfGFP reporter
T2 sequence (Q4K422 1-200): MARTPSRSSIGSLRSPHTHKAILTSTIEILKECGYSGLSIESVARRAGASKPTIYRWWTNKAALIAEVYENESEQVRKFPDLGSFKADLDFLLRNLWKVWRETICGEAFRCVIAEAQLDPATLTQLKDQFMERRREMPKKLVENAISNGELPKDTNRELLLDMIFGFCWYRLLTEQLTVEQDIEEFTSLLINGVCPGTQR
Nature of the assay: cell-based. Set-up: species or system Escherichia coli DH5alpha; E. coli receiver cells, GFP reporter under aTF-responsive promoter, flow cytometry, dose-response with pure synthetic signal molecules. The conditions noted are these: synthetic pure signal, replicate.
Source text: as §1

In assay [3] the target is T3, FdeR (Herbaspirillum seropedicae, UniProt D8J0W4).
T3 construct: gene nodD; expressed in E. coli DH5alpha receiver cells; GFP reporter under the cognate promoter
T3 sequence (D8J0W4 1-309): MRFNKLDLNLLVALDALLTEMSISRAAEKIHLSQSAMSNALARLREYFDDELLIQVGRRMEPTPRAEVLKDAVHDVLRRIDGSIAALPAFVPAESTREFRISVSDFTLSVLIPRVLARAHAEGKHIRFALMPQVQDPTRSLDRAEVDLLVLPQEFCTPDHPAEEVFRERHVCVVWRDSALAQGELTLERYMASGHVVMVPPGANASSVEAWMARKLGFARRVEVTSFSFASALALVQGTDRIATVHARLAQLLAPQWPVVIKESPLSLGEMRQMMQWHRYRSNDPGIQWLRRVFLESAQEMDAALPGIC
In words: GFP reporter dose-response in E. coli, flow cytometry. The format is cell-based, Escherichia coli.

The target of assay [4] is T3, FdeR. Nature of the assay: cell-based. The conditions noted are these: synthetic pure signal, replicate. Further details: species or system Escherichia coli DH5alpha; E. coli receiver cells, GFP reporter under aTF-responsive promoter, flow cytometry, dose-response with pure synthetic signal molecules.
Source text: as §1

As for `CCCC(=O)CC(=O)N[C@H]1CCOC1=O` [3OC6, 3-oxo-C6-HSL], the EC50 (usually the concentration at which the effect is half-maximal) on LuxR [1] amounted to 20 nM; at LuxR [2] (Synthetic [column B]), 10.8 nM; at LuxR [2] (Synthetic [column C]), 32.9 nM; on LuxR [2] (Synthetic [column D]) it was 14.8 nM.
Turning to `CC(=O)c1c(O)cc(O)c(C(C)=O)c1O` [DAPG, 2,4-diacetylphloroglucinol], the EC50 at PhlF (Synthetic [column B]) was determined as 18.2 µM; on PhlF (Synthetic [column C]), 17.7 µM; on PhlF (Synthetic [column D]) it was 16.3 µM.
On to `O=C1C[C@@H](c2ccc(O)cc2)Oc2cc(O)cc(O)c21` [NG, naringenin], for which the EC50 on FdeR [3] stood at 51 µM; at FdeR [4] (Synthetic [column B]), 12.1 µM; on FdeR [4] (Synthetic [column C]), 93.8 µM; on FdeR [4] (Synthetic [column D]), 47.3 µM.
